Measured values published in patent EP3741762A1, “OXALAMIDO-SUBSTITUTED TRICYCLIC INHIBITORS OF HEPATITIS B VIRUS” (priority 2019, dated 2020).

Each compound was assayed on HBV (assay: Anti-HBV activity in vitro: quantification of extracellular HBV DNA by direct qPCR in HepAD38 cells). Conditions: Hepatitis B virus, tetracycline-free medium, 96 hours at 37°C, reported as EC50 threshold value, read-out: HBV inh EC50.
Format: cell-based
From the text: HepAD38 cell line (Ladner et al., Antimicrob Agents Chemother, 1997, 41, 1715-20) was used for HBV inhibition assays. HepAD38 is a subclone, derived from Hepatoblastoma cell line HepG2 (ATCC® Number: HB-8065™), that expresses HBV genome under the transcriptional control of a tetracycline-responsive promoter in a TET-OFF system: addition of tetracycline (TET) or doxycycline suppresses HBV replication, while its removal switches on the process allowing HBV viral particles release in the cell supernatant. HepAD38 cell line is maintained in DMEM/F12, supplemented with 10% of fetal bovine serum, 1% of glutamine, 1% of penicillin/streptomycin, 0.4 mg/ml G418 and 0,3 ug/ml tetracycline. For the HBV inhibition assay, doxycycline-free medium is used in order to allow virion production.
HBV inhibition activity in vitro was performed in 96 multiwell plates. During the initial (primary) screening, compounds were first tested in triplicates at concentrations of 0.02 µM, 0.1 µM, 0.5µM and 1µM. For selected compounds, an 8-point dose-response curve was obtained using 1:2 serial dilutions (starting from 0.01µM, 0.1µM, 0.4µM or 5 µM, depending on the degree of inhibition observed during the primary screening). From the dose-response curves, half maximal effective concentration (EC50) could be calculated (see also below).
In more detail, compounds - typically dissolved in DMSO stock solutions - were diluted to 2x the final desired concentration in 100 µl of the above medium (without doxycycline) and plated in three replicates in the 96-well plates.
Simultaneously, HepAD38 cells - extensively pre-washed in tetracycline-free medium in order to induce HBV production - were suspended at 2^∗10^4 cells in 100 µl of tetracycline-free medium and added to each well of the plate, to yield a final assay volume of 200 µl DMSO - used for stock solutions and compounds dilutions - which was always present in the assays at a final concentration of 0.5%.
Plates were then incubated 96 hours at 37°C and then subjected to cell viability assays and extracellular HBV quantification, in order to evaluate both the cytotoxic potential and the antiviral activity of compounds. Cytotoxicity was assessed by a commercial fluorescence assay that measures the metabolic activity of cells, directly related to cell viability (Cell Titer Blue, Promega). Anti-HBV activity was evaluated by quantification of extracellular HBV DNA with direct qPCR. In particular, supernatant was collected and centrifuged for cell debris clarification, viral DNA was extracted from virions by addition of lysis buffer (1 mM 1,4-dithiothreitol, 0.2% sodium dodecyl sulphate) and incubated at 95°C for 10 min. Samples were then diluted 1:40 and real time PCR amplification was performed with SYBR green assay (Power SYBR™ Green PCR Master Mix-Thermo Fisher Scientific) and specific HBV primer (HBV-DF:5'-[…]-3' (SEQ ID No. 1), HBV-DR:5'-[…]-3' (SEQ ID No.2)).
Antiviral activity data for each compound are reported as EC50 threshold value (see Table 1 legend). Excel and Graphpad Prism programs are typically used for data elaboration and EC50 calculation.

Structure (SMILES) | EC50 [µM]
Cc1cc(NC(=O)c2c3c(cn2C)S(=O)(=O)N[C@H]2CN(C(=O)C(=O)NC4CCC4)C[C@H]2CO3)ccc1F [Example E22, (3aR,10aR)-2-(2-(cyclobutylamino)-2-oxoacetyl)-N-(4-fluoro-3-methylphenyl)-7-methyl-2,3,3a,4,10,10a-hexahydro-1H,7H-dipyrrolo[3,4-b:3',4'-f][1,4,5]oxathiazocine-8-carboxamide 5,5-dioxide] | < 0.5
Cc1cc(NC(=O)c2c3c(cn2C)S(=O)(=O)N[C@H]2CN(C(=O)C(=O)NCC(F)(F)F)C[C@H]2CS3)ccc1F [Example E38, (3aR,10aR)-N-(4-fluoro-3-methylphenyl)-7-methyl-2-(2-oxo-2-((2,2,2-trifluoroethyl)amino)acetyl)-2,3,3a,4,10,10a-hexahydro-1H,7H-dipyrrolo[3,4-c:3',4'-g][1,6,2]dithiazocine-8-carboxamide 5,5-dioxide] | < 0.5
Cc1cc(NC(=O)c2c3c(cn2C)S(=O)(=O)N[C@H]2CN(C(=O)C(=O)NCC4CC4)C[C@H]2CS3)ccc1F [Example E39, (3aR,10aR)-2-(2-((cyclopropylmethyl)amino)-2-oxoacetyl)-N-(4-fluoro-3-methylphenyl)-7-methyl-2,3,3a,4,10,10a-hexahydro-1H,7H-dipyrrolo[3,4-c:3',4'-g][1,6,2]dithiazocine-8-carboxamide 5,5-dioxide] | < 0.5
CNC(=O)C(=O)N1C[C@@H]2COc3c(cn(C)c3C(=O)Nc3cc(F)c(F)c(F)c3)S(=O)(=O)N[C@@H]2C1 (relative stereo) [Example E12, cis-7-methyl-2-(2-(methylamino)-2-oxoacetyl)-N-(3,4,5-trifluorophenyl)-2,3,3a,4,10,10a-hexahydro-1H,7H-dipyrrolo[3,4-b:3',4'-f][1,4,5]oxathiazocine-8-carboxamide 5,5-dioxide] | < 0.5
Cc1cc(NC(=O)c2c3c(cn2C)S(=O)(=O)N[C@@H]2CN(C(=O)C(N)=O)C[C@@H]2CO3)ccc1F (relative stereo) [Example E11, cis-2-(2-amino-2-oxoacetyl)-N-(4-fluoro-3-methylphenyl)-7-methyl-2,3,3a,4,10,10a-hexahydro-1H,7H-dipyrrolo[3,4-b:3',4'-f][1,4,5]oxathiazocine-8-carboxamide 5,5-dioxide] | < 0.5
Cc1cc(NC(=O)c2c3c(cn2C)S(=O)(=O)N[C@H]2CN(C(=O)C(=O)NC4(C(F)(F)F)CC4)C[C@H]2CO3)ccc1F [Example E19, (3aR,10aR)-N-(4-fluoro-3-methylphenyl)-7-methyl-2-(2-oxo-2-((1-(trifluoromethyl)cyclopropyl)amino)acetyl)-2,3,3a,4,10,10a-hexahydro-1H,7H-dipyrrolo[3,4-b:3',4'-f][1,4,5]oxathiazocine-8-carboxamide 5,5-dioxide] | < 0.5
Cc1cc(NC(=O)c2c3c(cn2C)S(=O)(=O)N[C@H]2CN(C(=O)C(=O)NC(C)C)C[C@H]2CO3)ccc1F [Example E21, (3aR,10aR)-N-(4-fluoro-3-methylphenyl)-2-(2-(isopropylamino)-2-oxoacetyl)-7-methyl-2,3,3a,4,10,10a-hexahydro-1H,7H-dipyrrolo[3,4-b:3',4'-f][1,4,5]oxathiazocine-8-carboxamide 5,5-dioxide] | < 0.5
Cc1cc(NC(=O)c2c3c(cn2C)S(=O)(=O)N[C@H]2CN(C(=O)C(=O)N[C@@H](C)C(F)(F)F)C[C@H]2CO3)ccc1F [Example E15, (3aR,10aR)-N-(4-fluoro-3-methylphenyl)-7-methyl-2-(2-oxo-2-(((S)-1,1,1-trifluoropropan-2-yl)amino)acetyl)-2,3,3a,4,10,10a-hexahydro-1H,7H-dipyrrolo[3,4-b:3',4'-f][1,4,5]oxathiazocine-8-carboxamide 5,5-dioxide] | < 0.5
Cc1cc(NC(=O)c2c3c(cn2C)S(=O)(=O)N[C@H]2CN(C(=O)C(=O)NC(C)(C)C(F)(F)F)C[C@H]2CO3)ccc1F [Example E32, (3aR,10aR)-N-(4-fluoro-3-methylphenyl)-7-methyl-2-(2-oxo-2-((1,1,1-trifluoro-2-methylpropan-2-yl)amino)acetyl)-2,3,3a,4,10,10a-hexahydro-1H,7H-dipyrrolo[3,4-b:3',4'-f][1,4,5]oxathiazocine-8-carboxamide 5,5-dioxide] | < 0.5
CN(C)C(=O)C(=O)N1C[C@@H]2COc3c(cn(C)c3C(=O)Nc3cc(F)c(F)c(F)c3)S(=O)(=O)N[C@@H]2C1 (relative stereo) [Example E1, cis-2-(2-(dimethylamino)-2-oxoacetyl)-7-methyl-N-(3,4,5-trifluorophenyl)-2,3,3a,4,10,10a-hexahydro-1H,7H-dipyrrolo[3,4-b:3',4'-f][1,4,5]oxathiazocine-8-carboxamide 5,5-dioxide] | < 0.5
Cc1cc(NC(=O)c2c3c(cn2C)S(=O)(=O)N[C@@H]2CN(C(=O)C(=O)NC4(C)COC4)C[C@@H]2CO3)ccc1F (relative stereo) [Example E2, cis-N-(4-fluoro-3-methylphenyl)-7-methyl-2-(2-((3-methyloxetan-3-yl)amino)-2-oxoacetyl)-2,3,3a,4,10,10a-hexahydro-1H,7H-dipyrrolo[3,4-b:3',4'-f][1,4,5]oxathiazocine-8-carboxamide 5,5-dioxide] | < 0.5
Cc1cc(NC(=O)c2c3c(cn2C)S(=O)(=O)N[C@H]2CN(C(=O)C(=O)NC4CC(F)(F)C4)C[C@H]2CO3)ccc1F [Example E14, (3aR,10aR)-2-(2-((3,3-difluorocyclobutyl)amino)-2-oxoacetyl)-N-(4-fluoro-3-methylphenyl)-7-methyl-2,3,3a,4,10,10a-hexahydro-1H,7H-dipyrrolo[3,4-b:3',4'-f][1,4,5]oxathiazocine-8-carboxamide 5,5-dioxide] | < 0.5
Cc1cc(NC(=O)c2c3c(cn2C)S(=O)(=O)N[C@@H]2CN(C(=O)C(=O)N[C@H](C)C(F)(F)F)C[C@H]2CO3)ccc1F (stereo in doubt) [Example E30, trans-N-(4-fluoro-3-methylphenyl)-7-methyl-2-(2-oxo-2-(((R)-1,1,1-trifluoropropan-2-yl)amino)acetyl)-2,3,3a,4,10,10a-hexahydro-1H,7H-dipyrrolo[3,4-b:3',4'-f][1,4,5]oxathiazocine-8-carboxamide 5,5-dioxide] | < 0.5
Cn1cc2c(c1C(=O)Nc1ccc(F)c(C#N)c1)OC[C@@H]1CN(C(=O)C(=O)NC3(C)COC3)C[C@@H]1NS2(=O)=O [Example E6, (3aR,10aR)-N-(3-cyano-4-fluorophenyl)-7-methyl-2-(2-((3-methyloxetan-3-yl)amino)-2-oxoacetyl)-2,3,3a,4,10,10a-hexahydro-1H,7H-dipyrrolo[3,4-b:3',4'-f][1,4,5] oxathiazocine-8-carboxamide 5,5-dioxide] | > 0.5
Cc1cc(NC(=O)c2c3c(cn2C)S(=O)(=O)N[C@H]2CN(C(=O)C(N)=O)C[C@H]2CS3)ccc1F [Example E34, (3aR,10aR)-2-(2-amino-2-oxoacetyl)-N-(4-fluoro-3-methylphenyl)-7-methyl-2,3,3a,4,10,10a-hexahydro-1H,7H-dipyrrolo[3,4-c:3',4'-g][1,6,2]dithiazocine-8-carboxamide 5,5-dioxide] | < 0.5
Cc1cc(NC(=O)c2c3c(cn2C)S(=O)(=O)N[C@@H]2CN(C(=O)C(=O)NC4CC4)C[C@]2(C)CO3)ccc1F (relative stereo) [Example E25, cis-2-(2-(cyclopropylamino)-2-oxoacetyl)-N-(4-fluoro-3-methylphenyl)-7,10a-dimethyl-2,3,3a,4,10,10a-hexahydro-1H,7H-dipyrrolo[3,4-b:3',4'-f][1,4,5]oxathiazocine-8-carboxamide 5,5-dioxide] | < 0.5
Cn1cc2c(c1C(=O)Nc1cc(F)c(F)c(F)c1)OC[C@@H]1CN(C(=O)C(=O)NC3(C)COC3)C[C@@H]1NS2(=O)=O [Example E4, (3aR,10aR)-7-methyl-2-(2-((3-methyloxetan-3-yl)amino)-2-oxoacetyl)-N-(3,4,5-trifluorophenyl)-2,3,3a,4,10,10a-hexahydro-1H,7H-dipyrrolo[3,4-b:3',4'-f][1,4,5]oxathiazocine-8-carboxamide 5,5-dioxide] | < 0.5
